Test [1] concerns the target T1, Recombinant ROCK1 (amino acids 1-477) (Homo sapiens, UniProt Q13464).
T1 construct: Recombinant ROCK1 (amino acids 1-477); by word order, ROCK1 from Carna Biosciences
As to the kind of experiment: ROCK inhibition assay, LANCE Ultra TR-FRET kinase assay (ROCK1). Format: biochemical. Conditions: 1 μM ATP, 50 nM ULight-CREBtide substrate. On the procedure:
(§1) Kinase IC50 was determined through an in vitro assay based on LANCE Ultra TR-FRET (Time-Resolved Fluorescence Resonance Energy Transfer) homogeneous technologies method (Perkin Elmer). Recombinant ROCK1 (amino acids 1-477) and ROCK2 (amino acids 5-554) proteins were purchased from Carna Biosciences and SignalChem. Compound activities were measured by Envision and IC50s were calculated. The assays were performed in white LUMITRAC™ 200 96 well half-area microplates from Greiner Bio-One. The kinase reaction buffer consisted of 50 mM HEPES pH 7.5, 1 mM EGTA, 10 mM MgCl2, 2 mM DTT and 0.01% Tween-20. Kinases were incubated with 50 nM (ULight-CREBtide) substrate in the presence of 1 (ROCK1) or 4 (ROCK2) μM ATP. The kinase reaction was carried out for 1 hour before addition of a stopping buffer to a final of 10 mM EDTA and 0.6 nM of LANCE Ultra Europium anti-phospho-CREB (Ser133) antibody (PerkinElmer TRF0200) in LANCE detection buffer. All assay incubations were performed at room temperature, and the microplates were sealed with polyester film during that time. The reaction was incubated for 1 hour, and the signal was read in Envision in TR-FRET mode (excitation at 320 nm and emission at 615/665 nm).
(§2) As used herein, a way to describe potency of inhibitory activity (nM) is a value of inhibitory activity at 50% (IC50).

For test [2], the target named is T2, Recombinant ROCK2 (amino acids 5-554) (Homo sapiens, UniProt O75116).
T2 construct: ROCK2 (amino acids 5-554); by word order, ROCK2 from SignalChem
As to the kind of experiment: ROCK inhibition assay, LANCE Ultra TR-FRET kinase assay (ROCK2). Format: biochemical. Conditions: 4 μM ATP, 50 nM ULight-CREBtide substrate. Here is the method: as §1, §2

Consider 47 compounds from US12064426B2, “Selective inhibitors of ROCK1 and ROCK2 protein kinases and uses thereof” (GENOSCO Inc., priority 2021, dated 2024).

pIC50: −log10 of the molar value.

T2 sequence (O75116 5-554): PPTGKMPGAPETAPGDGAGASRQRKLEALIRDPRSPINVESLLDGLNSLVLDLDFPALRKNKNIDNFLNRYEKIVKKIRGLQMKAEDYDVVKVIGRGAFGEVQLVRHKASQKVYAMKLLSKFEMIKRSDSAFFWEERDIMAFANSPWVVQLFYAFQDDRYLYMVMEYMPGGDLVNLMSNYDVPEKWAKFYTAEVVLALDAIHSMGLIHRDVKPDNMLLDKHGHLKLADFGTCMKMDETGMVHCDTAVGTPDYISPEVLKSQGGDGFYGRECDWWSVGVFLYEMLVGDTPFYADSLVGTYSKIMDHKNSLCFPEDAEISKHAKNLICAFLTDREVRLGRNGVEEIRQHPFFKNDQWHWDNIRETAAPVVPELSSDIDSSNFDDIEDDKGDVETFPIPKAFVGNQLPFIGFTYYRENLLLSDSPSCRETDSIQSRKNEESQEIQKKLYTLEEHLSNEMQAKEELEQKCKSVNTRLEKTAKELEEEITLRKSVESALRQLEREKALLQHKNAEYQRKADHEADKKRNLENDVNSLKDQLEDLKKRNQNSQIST
T1 sequence (Q13464 1-477): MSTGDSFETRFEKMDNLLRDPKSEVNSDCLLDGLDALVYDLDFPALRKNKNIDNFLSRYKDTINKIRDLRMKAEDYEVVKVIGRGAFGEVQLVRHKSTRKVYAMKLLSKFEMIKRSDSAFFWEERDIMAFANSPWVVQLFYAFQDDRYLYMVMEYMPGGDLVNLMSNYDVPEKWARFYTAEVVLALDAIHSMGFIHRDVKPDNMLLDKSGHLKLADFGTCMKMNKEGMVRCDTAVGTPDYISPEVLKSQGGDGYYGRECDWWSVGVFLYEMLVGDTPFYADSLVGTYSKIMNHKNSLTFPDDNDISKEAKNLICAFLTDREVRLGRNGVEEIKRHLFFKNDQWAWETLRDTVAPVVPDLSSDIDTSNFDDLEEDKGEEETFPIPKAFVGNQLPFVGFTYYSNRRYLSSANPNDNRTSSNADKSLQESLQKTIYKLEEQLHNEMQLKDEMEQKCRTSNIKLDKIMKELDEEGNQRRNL

As to `COc1cccc(CN2CCc3cc(-c4cn[nH]c4)ccc3C2=O)c1` [Compound 1, 2-(3-methoxybenzyl)-6-(1H-pyrazol-4-yl)-3,4-dihydroisoquinolin-1(2H)-one], the negative-log IC50 (pIC50) in test [1] was less than 6.30; in test [2], 6.30 to 7.00. Turning to `COc1cccc(Cn2ccc3cc(-c4cn[nH]c4)ccc3c2=O)c1` [Compound 2, 2-(3-methoxybenzyl)-6-(1H-pyrazol-4-yl)isoquinolin-1(2H)-one], the pIC50 was 6.30 to 7.00 in test [1] and 7.00 to 8.00 in test [2]. Taken in the same sequence, the figures for `O=c1c2ccc(-c3cn[nH]c3)cc2ccn1Cc1cccc(O)c1` [Compound 3, 2-(3-hydroxybenzyl)-6-(1H-pyrazol-4-yl)isoquinolin-1(2H)-one] were 6.30 to 7.00 and 7.00 to 8.00. As to `COc1cccc(Cn2ccc3cc(-c4c[nH]nc4C)ccc3c2=O)c1` [Compound 4], the negative logarithm of the IC50 (pIC50) was 7.00 to 7.96 in test [1] and more than 8.00 in test [2].

For the compound `Cc1n[nH]cc1-c1ccc2c(=O)n(Cc3cccc(O)c3)ccc2c1` [Compound 5], the pIC50 in test [1] was 6.30 to 7.00; in test [2], 7.00 to 8.00. Take `COc1cccc(Cn2ccc3cc(-c4c[nH]nc4C(F)(F)F)ccc3c2=O)c1` [Compound 6]: the pIC50 in test [1] was 7.00 to 7.96; in test [2], more than 8.00. `O=c1c2ccc(-c3c[nH]nc3C(F)(F)F)cc2ccn1Cc1cccc(O)c1` [Compound 7]: the negative logarithm of the IC50 (pIC50) was 6.30 to 7.00 in test [1] and 7.00 to 8.00 in test [2]. With `CC(c1cccc(O)c1)n1ccc2cc(-c3c[nH]nc3C(F)(F)F)ccc2c1=O` (stereo not drawn) [Compound 8], the pIC50 is 6.30 to 7.00 in test [1] and 7.00 to 8.00 in test [2]. `COc1cccc(Cn2ccc3cc(-c4conc4C)ccc3c2=O)c1` [Compound 9]: the pIC50 in test [1] is 7.00 to 7.96; in test [2], more than 8.00. `COc1cccc(Cn2ccc3cc(-c4ccnn4C)ccc3c2=O)c1` [Compound 11]: the results for the pIC50 in test [1] and in test [2] were 7.00 to 7.96 and more than 8.00, respectively. For the compound `COc1cccc(Cn2ccc3cc(-c4c[nH]nc4C(F)F)ccc3c2=O)c1` [Compound 13], the negative logarithm of the IC50 (pIC50) is 7.00 to 7.96 in test [1] and more than 8.00 in test [2]. Taken in the same sequence, the figures for `O=c1c2ccc(-c3c[nH]nc3C(F)F)cc2ccn1Cc1cccc(O)c1` [Compound 14] were 7.00 to 7.96 and more than 8.00. Regarding `CC(c1cccc(O)c1)n1ccc2cc(-c3c[nH]nc3C(F)F)ccc2c1=O` (stereo not drawn) [Compound 15], the pIC50 in test [1] was 7.00 to 7.96; in test [2] it was more than 8.00. In the same order, the values of `COc1cc(F)cc(Cn2ccc3cc(-c4c[nH]nc4Cl)ccc3c2=O)c1` [Compound 17] are 7.00 to 7.96 and more than 8.00.

For `COc1cccc(Cn2ccc3cc(-c4c[nH]nc4Cl)ccc3c2=O)c1` [Compound 18], the pIC50 in test [1] is 7.00 to 7.96; in test [2], more than 8.00. For `COc1cccc(C(C)n2ccc3cc(-c4c[nH]nc4Cl)ccc3c2=O)c1` (stereo not drawn) [Compound 19], the pIC50 in test [1] and in test [2] was more than 8.00 throughout.

As to `O=c1c2ccc(-c3c[nH]nc3Cl)cc2ccn1Cc1cccc(O)c1` [Compound 20], the pIC50 in test [1] and in test [2] was more than 8.00 in each case. As to `CC(c1cccc(O)c1)n1ccc2cc(-c3c[nH]nc3Cl)ccc2c1=O` (stereo not drawn) [Compound 21], the figures for the pIC50 in test [1] and in test [2] were 7.00 to 7.96 and more than 8.00, respectively.

On to `O=c1c2ccc(-c3ccncc3)cc2ccn1Cc1cccc(O)c1` [Compound 23], for which the pIC50 in test [1] is less than 6.30; in test [2], 6.30 to 7.00. For `COc1cccc(C(C)n2ccc3cc(-c4ccnc(N)c4)ccc3c2=O)c1` (stereo not drawn) [Compound 26], the pIC50 in test [1] is 6.30 to 7.00; in test [2], 7.00 to 8.00. In the case of `O=C(NCCc1ccccn1)c1cccc(Cn2ccc3cc(-c4cn[nH]c4)ccc3c2=O)c1` [Compound 27, 3-((1-oxo-6-(1H-pyrazol-4-yl)isoquinolin-2(1H)-yl)methyl)-N-(2-(pyridin-2-yl)ethyl)benzamide], the results for the negative-log IC50 (pIC50) in test [1] and in test [2] were 7.00 to 7.96 and more than 8.00, respectively.

On to `CC(C)NC(=O)c1cccc(Cn2ccc3cc(-c4cn[nH]c4)ccc3c2=O)c1` [Compound 28], for which the results for the negative-log IC50 (pIC50) in test [1] and in test [2] were 6.30 to 7.00 and 7.00 to 8.00, respectively. With `O=C(Nc1ccccc1)c1cccc(Cn2ccc3cc(-c4cn[nH]c4)ccc3c2=O)c1` [Compound 29], the pIC50 in test [1] is less than 6.30; in test [2], 6.30 to 7.00.

Regarding `O=C(NCc1ccccc1)c1cccc(Cn2ccc3cc(-c4cn[nH]c4)ccc3c2=O)c1` [Compound 30], the pIC50 in test [1] is less than 6.30; in test [2], 6.30 to 7.00. Regarding `Cc1n[nH]cc1-c1ccc2c(=O)n(Cc3cccc(C(=O)Nc4ccn(C)n4)c3)ccc2c1` [Compound 32], the figures for the pIC50 in test [1] and in test [2] were 6.30 to 7.00 and more than 8.00, respectively.

In the case of `Cc1n[nH]cc1-c1ccc2c(=O)n(Cc3cccc(C(=O)NCc4cccc(NS(C)(=O)=O)c4)c3)ccc2c1` [Compound 33], the negative logarithm of the IC50 (pIC50) in test [1] was less than 6.30; in test [2], 6.30 to 7.00.

As to `Cc1n[nH]cc1-c1ccc2c(=O)n(Cc3cccc(C(=O)Nc4cccc(S(N)(=O)=O)c4)c3)ccc2c1` [Compound 34], the pIC50 was less than 6.30 in test [1] and 6.30 to 7.00 in test [2]. `Cc1n[nH]cc1-c1ccc2c(=O)n(Cc3cccc(C(=O)Nc4cccc(OC(F)(F)F)c4)c3)ccc2c1` [Compound 35]: the negative-log IC50 (pIC50) is less than 6.30 in test [1] and 6.30 to 7.00 in test [2]. Take `Cc1n[nH]cc1-c1ccc2c(=O)n(Cc3cccc(C(=O)Nc4ccc(S(N)(=O)=O)cc4)c3)ccc2c1` [Compound 36]: the values for the pIC50 in test [1] and in test [2] were less than 6.30 and 6.30 to 7.00, respectively. In the case of `Cc1n[nH]cc1-c1ccc2c(=O)n(Cc3cccc(C(=O)Nc4ccc(NS(C)(=O)=O)cc4)c3)ccc2c1` [Compound 37], the pIC50 is less than 6.30 in test [1] and 6.30 to 7.00 in test [2].

In the case of `Cc1n[nH]cc1-c1ccc2c(=O)n(Cc3cccc(C(=O)Nc4ccccc4OC(F)(F)F)c3)ccc2c1` [Compound 38], the figures for the pIC50 in test [1] and in test [2] were less than 6.30 and 6.30 to 7.00, respectively. Turning to `Cc1n[nH]cc1-c1ccc2c(=O)n(Cc3cccc(C(=O)Nc4ccc(F)nc4)c3)ccc2c1` [Compound 39], the values for the pIC50 in test [1] and in test [2] were 6.30 to 7.00 and 7.00 to 8.00, respectively.

Regarding `Cc1n[nH]cc1-c1ccc2c(=O)n(Cc3cccc(C(=O)NCC(F)(F)F)c3)ccc2c1` [Compound 41], the negative logarithm of the IC50 (pIC50) in test [1] was 6.30 to 7.00; in test [2], 7.00 to 8.00. For the compound `NS(=O)(=O)c1ccc(NC(=O)c2cccc(Cn3ccc4cc(-c5c[nH]nc5C(F)(F)F)ccc4c3=O)c2)cc1` [Compound 42], the pIC50 in test [1] is 6.30 to 7.00; in test [2], 7.00 to 8.00. For the compound `Cn1ccc(NC(=O)c2cccc(Cn3ccc4cc(-c5cn[nH]c5C(F)(F)F)ccc4c3=O)c2)n1` [Compound 43], the pIC50 is 7.00 to 7.96 in test [1] and more than 8.00 in test [2]. Regarding `O=C(NCc1ccc(F)nc1)c1cccc(Cn2ccc3cc(-c4c[nH]nc4C(F)(F)F)ccc3c2=O)c1` [Compound 44], the negative logarithm of the IC50 (pIC50) in test [1] was 7.00 to 7.96; in test [2] it was more than 8.00.

Consider `O=C(NC1CCOCC1)c1cccc(Cn2ccc3cc(-c4c[nH]nc4C(F)(F)F)ccc3c2=O)c1` [Compound 45], for which the negative logarithm of the IC50 (pIC50) in test [1] was 6.30 to 7.00; in test [2], 7.00 to 8.00.

Turning to `O=C(NC1CCNCC1)c1cccc(Cn2ccc3cc(-c4c[nH]nc4C(F)(F)F)ccc3c2=O)c1` [Compound 46], the negative-log IC50 (pIC50) in test [1] and in test [2] was more than 8.00 in each case.

Regarding `CN1CCC(NC(=O)c2cccc(Cn3ccc4cc(-c5c[nH]nc5C(F)(F)F)ccc4c3=O)c2)CC1` [Compound 47], the negative-log IC50 (pIC50) in test [1] and in test [2] was more than 8.00 each time.

Take `O=C(NC1CCN(C2COC2)CC1)c1cccc(Cn2ccc3cc(-c4c[nH]nc4C(F)(F)F)ccc3c2=O)c1` [Compound 48]: the pIC50 is 6.30 to 7.00 in test [1] and more than 8.00 in test [2]. As to `O=C(NC1CCN(CC(F)F)CC1)c1cccc(Cn2ccc3cc(-c4c[nH]nc4C(F)(F)F)ccc3c2=O)c1` [Compound 49], the pIC50 is 6.30 to 7.00 in test [1] and more than 8.00 in test [2]. As for `O=C(NC1CC1)c1cccc(Cn2ccc3cc(-c4c[nH]nc4C(F)(F)F)ccc3c2=O)c1` [Compound 50], the negative logarithm of the IC50 (pIC50) is 6.30 to 7.00 in test [1] and 7.00 to 8.00 in test [2]. Taken in the same sequence, the figures for `CN1CCC(CNC(=O)c2cccc(Cn3ccc4cc(-c5c[nH]nc5C(F)(F)F)ccc4c3=O)c2)CC1` [Compound 51] were more than 8.00 and more than 8.00. On to `O=C(NCC1CCOCC1)c1cccc(Cn2ccc3cc(-c4c[nH]nc4C(F)(F)F)ccc3c2=O)c1` [Compound 52], for which the pIC50 is 7.00 to 7.96 in test [1] and more than 8.00 in test [2]. Take `O=C(NCC1COC1)c1cccc(Cn2ccc3cc(-c4c[nH]nc4C(F)(F)F)ccc3c2=O)c1` [Compound 53]: the pIC50 in test [1] was 7.00 to 7.96; in test [2], more than 8.00. As to `O=C(NCCc1cccc(F)n1)c1cccc(Cn2ccc3cc(-c4c[nH]nc4C(F)(F)F)ccc3c2=O)c1` [Compound 54], the pIC50 is 7.00 to 7.96 in test [1] and more than 8.00 in test [2]. For the compound `C[C@H](c1cccc(C(=O)Nc2ccon2)c1)n1cnc2cc(-c3cn[nH]c3C(F)(F)F)ccc2c1=O` [Compound 448], the pIC50 in test [1] is 6.30 to 7.00.
